Results taken from the NIST ThermoML archive (doi:10.1021/je900550v).

Details: 101.33 kPa, Liquid; for speed of sound: Pulse-echo method; for mass density: Vibrating tube method

CCC(=O)[O-].C[NH2+]CCO [2-hydroxy-N-methylethanaminium propionate]
Details | mass density [kg/m3] | speed of sound [m/s] | viscosity [mPa·s]
278.15 K | 1084.28 | 1752.4 | –
278.4 K | 1084.12 | 1751.6 | –
278.65 K | 1083.96 | 1750.7 | –
278.9 K | 1083.8 | 1749.8 | –
279.15 K | 1083.63 | 1749 | –
279.4 K | 1083.47 | 1748.1 | –
279.65 K | 1083.31 | 1747.3 | –
279.9 K | 1083.15 | 1746.5 | –
280.15 K | 1082.98 | 1745.6 | –
280.4 K | 1082.82 | 1744.8 | –
280.65 K | 1082.66 | 1744 | –
280.9 K | 1082.5 | 1743.1 | –
281.15 K | 1082.34 | 1742.3 | –
281.4 K | 1082.18 | 1741.5 | –
281.65 K | 1082.02 | 1740.7 | –
281.9 K | 1081.86 | 1739.8 | –
282.15 K | 1081.69 | 1739 | –
282.4 K | 1081.53 | 1738.2 | –
282.65 K | 1081.37 | 1737.4 | –
282.9 K | 1081.21 | 1736.6 | –
283.15 K | 1081.05 | 1735.8 | –
283.4 K | 1080.88 | 1735 | –
283.65 K | 1080.72 | 1734.2 | –
283.9 K | 1080.56 | 1733.4 | –
284.15 K | 1080.39 | 1732.6 | –
284.4 K | 1080.23 | 1731.8 | –
284.65 K | 1080.07 | 1731 | –
284.9 K | 1079.91 | 1730.2 | –
285.15 K | 1079.75 | 1729.4 | –
285.4 K | 1079.59 | 1728.5 | –
285.65 K | 1079.42 | 1727.8 | –
285.9 K | 1079.25 | 1727 | –
286.15 K | 1079.09 | 1726.2 | –
286.4 K | 1078.93 | 1725.5 | –
286.65 K | 1078.76 | 1724.7 | –
286.9 K | 1078.6 | 1723.9 | –
287.15 K | 1078.44 | 1723.1 | –
287.4 K | 1078.28 | 1722.4 | –
287.65 K | 1078.11 | 1721.6 | –
287.9 K | 1077.95 | 1720.8 | –
288.15 K | 1077.79 | 1720 | 432.13
288.4 K | 1077.62 | 1719.3 | –
288.65 K | 1077.46 | 1718.5 | –
288.9 K | 1077.3 | 1717.7 | –
289.15 K | 1077.13 | 1717 | –
289.4 K | 1076.97 | 1716.2 | –
289.65 K | 1076.81 | 1715.4 | –
289.9 K | 1076.64 | 1714.7 | –
290.15 K | 1076.48 | 1713.9 | –
290.4 K | 1076.31 | 1713.2 | –
290.65 K | 1076.15 | 1712.4 | 359.06
290.9 K | 1075.98 | 1711.6 | –
291.15 K | 1075.82 | 1710.9 | –
291.4 K | 1075.65 | 1710.1 | –
291.65 K | 1075.49 | 1709.3 | –
291.9 K | 1075.33 | 1708.6 | –
292.15 K | 1075.16 | 1707.8 | –
292.4 K | 1075 | 1707.1 | –
292.65 K | 1074.83 | 1706.4 | –
292.9 K | 1074.67 | 1705.6 | –
293.15 K | 1074.5 | 1704.9 | 301.63
293.4 K | 1074.34 | 1704.1 | –
293.65 K | 1074.17 | 1703.4 | –
293.9 K | 1074.01 | 1702.6 | –
294.15 K | 1073.84 | 1701.9 | –
294.4 K | 1073.68 | 1701.1 | –
294.65 K | 1073.51 | 1700.4 | –
294.9 K | 1073.35 | 1699.7 | –
295.15 K | 1073.18 | 1698.9 | –
295.4 K | 1073.02 | 1698.2 | –
295.65 K | 1072.86 | 1697.4 | 256.14
295.9 K | 1072.7 | 1696.7 | –
296.15 K | 1072.54 | 1695.9 | –
296.4 K | 1072.38 | 1695.2 | –
296.65 K | 1072.22 | 1694.5 | –
296.9 K | 1072.07 | 1693.7 | –
297.15 K | 1071.9 | 1693 | –
297.4 K | 1071.74 | 1692.2 | –
297.65 K | 1071.59 | 1691.5 | –
297.9 K | 1071.43 | 1690.7 | –
298.15 K | 1071.27 | 1690 | 215.06
298.4 K | 1071.11 | 1689.3 | –
298.65 K | 1070.95 | 1688.5 | –
298.9 K | 1070.79 | 1687.8 | –
299.15 K | 1070.63 | 1687 | –
299.4 K | 1070.47 | 1686.3 | –
299.65 K | 1070.31 | 1685.5 | –
299.9 K | 1070.15 | 1684.8 | –
300.15 K | 1069.99 | 1684.1 | –
300.4 K | 1069.83 | 1683.3 | –
300.65 K | 1069.67 | 1682.6 | 182.88
300.9 K | 1069.51 | 1681.8 | –
301.15 K | 1069.35 | 1681.1 | –
301.4 K | 1069.18 | 1680.3 | –
301.65 K | 1069.02 | 1679.6 | –
301.9 K | 1068.86 | 1678.9 | –
302.15 K | 1068.69 | 1678.1 | –
302.4 K | 1068.53 | 1677.4 | –
302.65 K | 1068.38 | 1676.7 | –
302.9 K | 1068.21 | 1675.9 | –
303.15 K | 1068.05 | 1675.2 | 158.24
303.4 K | 1067.89 | 1674.5 | –
303.65 K | 1067.73 | 1673.7 | –
303.9 K | 1067.57 | 1673 | –
304.15 K | 1067.4 | 1672.3 | –
304.4 K | 1067.24 | 1671.5 | –
304.65 K | 1067.08 | 1670.8 | –
304.91 K | 1066.92 | 1670.1 | –
305.15 K | 1066.76 | 1669.3 | 140.88
305.4 K | 1066.59 | 1668.6 | –
305.65 K | 1066.42 | 1667.9 | –
305.9 K | 1066.27 | 1667.1 | –
306.15 K | 1066.1 | 1666.4 | –
306.4 K | 1065.94 | 1665.7 | –
306.65 K | 1065.77 | 1664.9 | –
306.9 K | 1065.61 | 1664.2 | –
307.15 K | 1065.45 | 1663.5 | –
307.4 K | 1065.28 | 1662.7 | –
307.65 K | 1065.12 | 1662 | –
307.9 K | 1064.95 | 1661.2 | –
